Test results taken from patent US10160732B2, “MIF inhibitors” (MIFCARE, priority 2014, dated 2018).

Target: T1, recombinant human MIF (Homo sapiens, UniProt P14174)
T1 construct: purchased RayBiotech
T1 sequence (P14174 2-115 limits assumed): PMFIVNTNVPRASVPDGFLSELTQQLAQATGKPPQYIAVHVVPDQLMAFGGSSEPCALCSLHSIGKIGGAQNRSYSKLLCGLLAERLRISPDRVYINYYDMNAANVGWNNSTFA
Assay: MIF tautomerase assay using 4-hydroxyphenylpyruvate (4-HPP)
Assay type: biochemical
Settings: compounds tested at 1 nM; 300 ng/mL rhMIF; 4-HPP substrate; compared to positive control with recombinant human MIF alone
Description: Tautomerase activity was assessed using 4-hydroxyphenylpyruvate (4-HPP) as substrate. 4-HPP was dissolved in 50 mM ammonium acetate at pH 6.0, allowed to equilibrate to room temperature and stored at −20° C. 300 ng/mL of recombinant human MIF (rhMIF; RayBiotech, Le Perray en Yvelines, France) and tested compounds were pre-incubated at room temperature for 15 min. Tautomerase activity was assessed at room temperature, by adding 4-HHP to a 96-well plate containing 0.435 M boric acid at pH 6.6 and rhMIF with or without (positive control) tested compounds (1 nM), and by measuring the increase in absorbance at 320 nm over 10-360 s using the 2103 EnVision™ Multilabel Plate Readers (PerkinElmer, Villebon-sur-Yvette, France). Compounds were tested at 1 nM. The assay was replicated 3 times independently.
Compounds 38, 39 and 41 of the present invention were tested and compared to their respective “C═O” isosteres 38-O, 39-O and 41-O. Results are also compared to prototypical MIF inhibitor ISO-1.
Results are presented in table 2 below and represent the percentage of MIF tautomerase activity inhibition as compared to the positive control with recombinant human MIF alone.

COc1ccccc1Cn1c(=O)oc2ccc(C)cc21 [Compound 41-O]
inhibition at 0.001 µM: 31%

Cc1ccc2oc(=O)n(Cc3ccccc3)c2c1 [Compound 39-O]
inhibition at 0.001 µM: 12%
